In a melting point compilation (Tetko et al.; mined from patent text by program, amines drawn as free bases though some values may be those of a salt):

SMILES | melting point [°C]
Nc1nc(=O)n(C2OC(CO)CC2F)cc1F (configuration not stated) | 209 to 210
COc1nc(OC)nc(-n2cnc(SC)n2)n1 | 160
CCOCn1c(Br)c(Br)c(C#N)c1C(F)(F)F | 65 to 67
O=S(=O)(O)CCCNC1CCCCCC1 | 341 to 343
N#CCCN1C(=O)C2(OCCCO2)c2ccc(Cl)cc21 | 163 to 164
Cc1oc(=O)c(Nc2ccccc2F)nc1Cl | 126 to 129
Cc1cc(-c2nnc(C(C)(C)C)o2)ccc1[N+](=O)[O-] | 123 to 125
O=[N+]([O-])c1ccc(Br)cc1-c1cc(-c2ccc(Br)cc2)on1 | 184 to 185
COc1cc2c(cc1Br)-c1cc3c(n1CC2)C(=O)N(C(C)(C)C)CCC3 | 163 to 165
Cn1nc(-c2ccc(Cl)cc2)cc1N=Cc1ccsc1 | 130
O=NN1CCc2cc(Cl)ccc21 | 120 to 122
C#CCOc1nc(N)c(C(F)(F)F)cc1Cl | 56 to 58
CC(C)(C)NC(=O)[C@@H]1C[C@H](N2CCOCC2)CN1C(=O)OC(C)(C)C | 172 to 173
NC(=O)NN=Cc1ccc(OC2CCCCC2)cc1 | 215 to 217
COc1ccc2c(c1O)CN(C)C(=O)C2c1cc(OC)c(OC)c(OC)c1 (single isomer, unassigned; (+)) | 193 to 196
CCOC(=O)C(C)(NC(C)=O)C(=O)OCC | 89 to 90
Clc1c(-c2cnco2)[nH]c2ccccc12 | 131 to 134
c1ccc(Oc2ccc(OCCOn3cccn3)cc2)cc1 | 83 to 85
CN1C(=O)C(C)(C)N=C(c2ccccc2F)c2cc(NC(=O)C(C)(C)N)ccc21 | 250
CCNC(=O)N1C(=O)Cc2cc(Cl)ccc21 | 121 to 122
COc1ccc(N2CC(O)c3cc(Cl)sc3S2(=O)=O)cc1 (configuration not stated) | 127 to 132
Cc1onc(-c2ccccc2)c1C(=O)N[C@@H]1N=C(c2ccccc2)c2ccccc2N(C)C1=O | 123 to 126

SMILES | melting point [°C]
O=C(O)CCC(Cc1ccc(Cl)cc1)(C(=O)C=Cc1ccc(Cl)cc1)c1ccccc1 (configuration not stated) | 176 to 178
CCCc1nc2c(N)nc3c(c2n1CC(C)(C)OCCS(C)(=O)=O)CCCC3 | 188 to 190
CCCCCCCCCCCCC(=O)CC | 84 to 86
NS(=O)(=O)c1ccc(NC(=O)NC23CC4CC(CC(C4)C2)C3)cc1 | 270 to 275
CC(C)(C)OC(=O)CC(C#N)c1ccc(Cl)c(Cl)c1 (configuration not stated) | 67
CCOC(=O)C(=[N+]=[N-])C(=O)c1cc(I)cnc1Cl | 84 to 85
COC(=O)c1cc2c(Br)csc2nc1C(=O)OC | 86 to 87.5
O=CNc1nc2ccc([N+](=O)[O-])cc2s1 | 248 to 251
CC(=O)c1sc2sc(-c3ccncc3)c(C)c2c1C | 171 to 173
COc1ccc2c(c1)C(CCN1CC=C(c3ccccc3)CC1)C(C)N2C(C)=O (configuration not stated) | 113 to 115
Cc1nc(N)nc(O)c1I | 212
Cc1ccc(C=Cc2cccc(C#N)n2)cc1 | 137 to 138
CN1C[C@H]2c3ccccc3CC[C@H]2CCC1=O (relative stereo) | 130 to 131
Cc1nn(C)c(C2=NC(C)CN2)c1[N+](=O)[O-] (configuration not stated) | 98 to 101
COc1cc(-n2cccn2)ncn1 | 108 to 109
O=c1[nH]c(N2CCNC(CO)C2)cc2ccccc12 (configuration not stated) | > 120
O=c1c(-c2ccccc2)ccc2n1CCc1sccc1-2 | 187 to 189
CC1Cc2c(Cl)ccc3c(=O)c(C(=O)O)cn1c23 (configuration not stated) | 288 to 290
C#CCNc1ccc([N+](=O)[O-])cc1 | 150 to 153
CC(C)CC(CO)NC(=O)OCC1c2ccccc2-c2ccccc21 (configuration not stated) | 131 to 133
ClCSc1ncc(Cl)cn1 | 78

Further lines, results first:

melting point [°C] | SMILES
177 to 181 | Cn1c2ccccc2c2c3c(c4c5ccccc5n(CCCCN)c4c21)C(=O)NC3=O
131 to 133 | Cc1cn(-c2ccc(NC(=O)c3ccc(C)c(C#Cc4cnc(NC5CC5)nc4)c3)cc2C(F)(F)F)cn1
161 to 162 | CC(C)(C(=O)O)C(=O)NCCc1cn(C(c2ccccc2)(c2ccccc2)c2ccccc2)cn1
181 to 183 | CC(=O)NCC1OC(=O)N2c3ccc(-c4ccccc4)cc3CC12 (configuration not stated)
178 to 179 | Cc1c(CNCC(C)(C)C)[nH]c2c(C)c(NC(=O)c3ccc(OC[C@@H]4CCCO4)cc3)ccc12
96 to 97 | CCOC(=O)c1ccc(/C=C(\C)c2ccc3c(c2)CCC(C)(C)CS3)cc1
108 to 109 | CCOC(=O)CCc1c(OCCCCCCc2ccc(OC)cc2)ccc2c(=O)c3cc(C(=O)OC)ccc3oc12
117 to 119 | O=C(NCC1Cc2cc(Cl)c3ccccc3c2O1)OCc1ccccc1 (configuration not stated)
50 to 52 | C=C(C)CO[C@H]1[C@H](C)OC(=O)[C@@H](NC(=O)c2nccc(OC)c2OCc2ccccc2)COC(=O)[C@@H]1Cc1ccccc1
165 | Cc1cc(C(F)(F)F)cc(N(C(N)=O)c2c(Cl)cccc2Cl)n1
> 270 | Nc1nnc(-c2cc3c(Oc4ccc(Cl)cc4)cncc3s2)[nH]1
253 to 256 | Cc1ccc(S(=O)(=O)n2ccc3c(-c4c(-c5ccc(F)cc5)nc5ccc(N6CCN[C@H](C)C6)nn45)ccnc32)cc1
236 | Cc1cc(O)cc(-c2nn(CC#N)cc2-c2cc(NC[C@H](C)O)nc(-c3cccnc3)n2)c1
126 to 127 | O=C(c1ccc(Cl)cc1)c1cc2ccccc2cn1
91 to 96 | O=S(=O)(Cl)c1nc2nc(OCC(F)(F)F)ccn2n1
186 | CCCCc1nc(S(=O)CC)c(C(=O)O)n1Cc1ccc(-c2ccccc2C(=O)O)cc1 (configuration not stated)
249 to 250 | COc1cc(Cl)cc(C)c1Nc1nc2c(Cl)ccc(C(=O)C(C)(C)C)c2n1C
> 300 | Cc1c(-n2ccnc2)n(CCOc2ccc(C(=O)O)cc2)c2ccccc12
218 to 219 | C[C@@H](NC(=O)c1ccc(-c2ccc(Cl)cc2)o1)[C@](O)(Cn1cncn1)c1ccc(F)cc1F
133 to 136 | COc1ccc(C2=NN(Cc3cccc(C(=O)O)c3)C(=O)[C@H]3CCCC[C@@H]23)cc1OC (relative stereo)
133 | COCCn1ccc2ccc(NC(=O)/C=C/c3ccc(C(C)(C)C)cc3)cc21
230 to 240 | COc1ccc(Nc2c(C#N)cnc3cc(OC)c(OC)cc23)cc1OC
257 | CCOc1cc(-c2cc(C(F)(F)F)n3ncc(-c4cc(C)nc(C)c4)c3n2)ccc1C(F)(F)F
183 to 186 | C#CCN(Cc1ccc2nc(NC(=O)C(C)(C)C)[nH]c(=O)c2c1)c1ccc(C#N)cc1
163 | COCCO[C@@H]1c2ccc3c(nc(C)n3C)c2O[C@H](c2ccccc2)[C@H]1O
76 to 79 | CCOC(=O)c1cccc(Oc2ncccc2OCCCc2ccncc2O)c1
270 to 273 | O=C(C=Cc1ccc(Cl)c(C(F)(F)F)c1)NN1CC(=O)NC1=O
50 | O=C1Cc2cccc(CNC(=O)C3Cc4ccccc4N3S(=O)(=O)c3ccc(-c4cccc(C(F)(F)F)c4)cc3)c2N1 (configuration not stated)
188 to 189 | COc1ccc(C(=O)Nc2cc(C)cc(C)c2)cc1NC(=S)Nc1cccc(C)c1
